# Results: ChEMBL document CHEMBL1142627, “Ribofuranosyl triazolone: a natural product herbicide with activity on adenylosuccinate synthetase following phosphorylation” (J Nat Prod, 2000)
# Calls of active or inactive are those of the source. The calls are words filed in the database; no cut-off is given here.
# How the values were obtained:
# [1] = (§1) Inhibition of rabbit muscle Adenylosuccinate synthase assessed as adenylosuccinate formation; design: species or system Oryctolagus cuniculus; conditions: read-out: I50
# [2] = species: Oryctolagus cuniculus; assay: as §1
# [3] = (§2) Inhibition of Zea mays BMS cells Adenylosuccinate synthase assessed as adenylosuccinate formation; type: cell-based; conditions: read-out: I50
# [4] = test system: BMS; assay: as §2; type: cell-based
# [5] = test system: Abutilon theophrasti; assay: Phytotoxicity against Abutilon theophrasti assessed as visual injury at 1.0 kg/ha growth rate treated post-emergence by greenhouse test; type: functional
# [6] = test system: Abutilon theophrasti; assay: Phytotoxicity against Abutilon theophrasti assessed as visual injury at 0.5 kg/ha growth rate treated post-emergence by greenhouse test; type: functional
# [7] = test system: Abutilon theophrasti; assay: Phytotoxicity against Abutilon theophrasti assessed as visual injury at 4.0 kg/ha growth rate treated pre-emergence by greenhouse test; type: functional
# [8] = test system: Abutilon theophrasti; assay: Phytotoxicity against Abutilon theophrasti assessed as visual injury at 2.0 kg/ha growth rate treated pre-emergence by greenhouse test; type: functional
# [9] = test system: Abutilon theophrasti; assay: Phytotoxicity against Abutilon theophrasti assessed as visual injury at 1.0 kg/ha growth rate treated pre-emergence by greenhouse test; type: functional
# [10] = test system: Abutilon theophrasti; assay: Phytotoxicity against Abutilon theophrasti assessed as visual injury at 0.5 kg/ha growth rate treated pre-emergence by greenhouse test; type: functional
# [11] = test system: Amaranthus retroflexus; assay: Phytotoxicity against Amaranthus retroflexus assessed as visual injury at 4.0 kg/ha growth rate treated post-emergence by greenhouse test; type: functional
# [12] = test system: Amaranthus retroflexus; assay: Phytotoxicity against Amaranthus retroflexus assessed as visual injury at 2.0 kg/ha growth rate treated post-emergence by greenhouse test; type: functional
# [13] = test system: Amaranthus retroflexus; assay: Phytotoxicity against Amaranthus retroflexus assessed as visual injury at 1.0 kg/ha growth rate treated post-emergence by greenhouse test; type: functional
# [14] = test system: Amaranthus retroflexus; assay: Phytotoxicity against Amaranthus retroflexus assessed as visual injury at 0.5 kg/ha growth rate treated post-emergence by greenhouse test; type: functional
# [15] = test system: Amaranthus retroflexus; assay: Phytotoxicity against Amaranthus retroflexus assessed as visual injury at 4.0 kg/ha growth rate treated pre-emergence by greenhouse test; type: functional
# [16] = test system: Amaranthus retroflexus; assay: Phytotoxicity against Amaranthus retroflexus assessed as visual injury at 2.0 kg/ha growth rate treated pre-emergence by greenhouse test; type: functional
# [17] = test system: Amaranthus retroflexus; assay: Phytotoxicity against Amaranthus retroflexus assessed as visual injury at 1.0 kg/ha growth rate treated pre-emergence by greenhouse test; type: functional
# [18] = test system: Amaranthus retroflexus; assay: Phytotoxicity against Amaranthus retroflexus assessed as visual injury at 0.5 kg/ha growth rate treated pre-emergence by greenhouse test; type: functional
# [19] = test system: Setaria faberi; assay: Phytotoxicity against Setaria faberi assessed as visual injury at 4.0 kg/ha growth rate treated post-emergence by greenhouse test; type: functional
# [20] = test system: Setaria faberi; assay: Phytotoxicity against Setaria faberi assessed as visual injury at 2.0 kg/ha growth rate treated post-emergence by greenhouse test; type: functional
# [21] = test system: Setaria faberi; assay: Phytotoxicity against Setaria faberi assessed as visual injury at 1.0 kg/ha growth rate treated post-emergence by greenhouse test; type: functional
# [22] = test system: Setaria faberi; assay: Phytotoxicity against Setaria faberi assessed as visual injury at 0.5 kg/ha growth rate treated post-emergence by greenhouse test; type: functional
# [23] = test system: Setaria faberi; assay: Phytotoxicity against Setaria faberi assessed as visual injury at 4.0 kg/ha growth rate treated pre-emergence by greenhouse test; type: functional
# [24] = test system: Setaria faberi; assay: Phytotoxicity against Setaria faberi assessed as visual injury at 2.0 kg/ha growth rate treated pre-emergence by greenhouse test; type: functional
# [25] = test system: Setaria faberi; assay: Phytotoxicity against Setaria faberi assessed as visual injury at 1.0 kg/ha growth rate treated pre-emergence by greenhouse test; type: functional
# [26] = test system: Setaria faberi; assay: Phytotoxicity against Setaria faberi assessed as visual injury at 0.5 kg/ha growth rate treated pre-emergence by greenhouse test; type: functional
# [27] = test system: Arabidopsis thaliana; assay: Metabolite reversal in Arabidopsis thaliana assessed as root growth inhibition in presence of adenine and guanine; type: functional, organism-based
# [28] = test system: Arabidopsis thaliana; assay: Metabolite reversal in Arabidopsis thaliana assessed as root growth inhibition in presence of adenine; type: functional, organism-based
# [29] = test system: Arabidopsis thaliana; assay: Metabolite reversal in Arabidopsis thaliana assessed as root growth inhibition in presence of guanine; type: functional, organism-based
# [30] = test system: Alopecurus myosuroides; assay: Phytotoxicity against Alopecurus myosuroides assessed as visual injury at 4.0 kg/ha growth rate treated post-emergence by greenhouse test; type: functional
# [31] = test system: Alopecurus myosuroides; assay: Phytotoxicity against Alopecurus myosuroides assessed as visual injury at 2.0 kg/ha growth rate treated post-emergence by greenhouse test; type: functional
# [32] = test system: Alopecurus myosuroides; assay: Phytotoxicity against Alopecurus myosuroides assessed as visual injury at 1.0 kg/ha growth rate treated post-emergence by greenhouse test; type: functional
# [33] = test system: Alopecurus myosuroides; assay: Phytotoxicity against Alopecurus myosuroides assessed as visual injury at 0.5 kg/ha growth rate treated post-emergence by greenhouse test; type: functional
# [34] = test system: Alopecurus myosuroides; assay: Phytotoxicity against Alopecurus myosuroides assessed as visual injury at 4.0 kg/ha growth rate treated pre-emergence by greenhouse test; type: functional
# [35] = test system: Alopecurus myosuroides; assay: Phytotoxicity against Alopecurus myosuroides assessed as visual injury at 2.0 kg/ha growth rate treated pre-emergence by greenhouse test; type: functional
# [36] = test system: Alopecurus myosuroides; assay: Phytotoxicity against Alopecurus myosuroides assessed as visual injury at 1.0 kg/ha growth rate treated pre-emergence by greenhouse test; type: functional
# [37] = test system: Alopecurus myosuroides; assay: Phytotoxicity against Alopecurus myosuroides assessed as visual injury at 0.5 kg/ha growth rate treated pre-emergence by greenhouse test; type: functional
# [38] = test system: Arabidopsis thaliana; assay: Inhibition of Arabidopsis thaliana root growth; type: functional, organism-based
# [39] = test system: Helianthus annuus; assay: Phytotoxicity against Helianthus annuus assessed as visual injury at 4.0 kg/ha growth rate treated post-emergence by greenhouse test; type: functional
# [40] = test system: Helianthus annuus; assay: Phytotoxicity against Helianthus annuus assessed as visual injury at 2.0 kg/ha growth rate treated post-emergence by greenhouse test; type: functional
# [41] = test system: Helianthus annuus; assay: Phytotoxicity against Helianthus annuus assessed as visual injury at 1.0 kg/ha growth rate treated post-emergence by greenhouse test; type: functional
# [42] = test system: Helianthus annuus; assay: Phytotoxicity against Helianthus annuus assessed as visual injury at 0.5 kg/ha growth rate treated post-emergence by greenhouse test; type: functional
# [43] = test system: Helianthus annuus; assay: Phytotoxicity against Helianthus annuus assessed as visual injury at 4.0 kg/ha growth rate treated pre-emergence by greenhouse test; type: functional
# [44] = test system: Helianthus annuus; assay: Phytotoxicity against Helianthus annuus assessed as visual injury at 2.0 kg/ha growth rate treated pre-emergence by greenhouse test; type: functional
# [45] = test system: Helianthus annuus; assay: Phytotoxicity against Helianthus annuus assessed as visual injury at 1.0 kg/ha growth rate treated pre-emergence by greenhouse test; type: functional
# [46] = test system: Helianthus annuus; assay: Phytotoxicity against Helianthus annuus assessed as visual injury at 0.5 kg/ha growth rate treated pre-emergence by greenhouse test; type: functional
# [47] = test system: Echinochloa crus-galli; assay: Phytotoxicity against Echinochloa crusgalli assessed as visual injury at 4.0 kg/ha growth rate treated post-emergence by greenhouse test; type: functional
# [48] = test system: Echinochloa crus-galli; assay: Phytotoxicity against Echinochloa crusgalli assessed as visual injury at 2.0 kg/ha growth rate treated post-emergence by greenhouse test; type: functional
# [49] = test system: Echinochloa crus-galli; assay: Phytotoxicity against Echinochloa crusgalli assessed as visual injury at 1.0 kg/ha growth rate treated post-emergence by greenhouse test; type: functional
# [50] = test system: Echinochloa crus-galli; assay: Phytotoxicity against Echinochloa crusgalli assessed as visual injury at 0.5 kg/ha growth rate treated post-emergence by greenhouse test; type: functional
# [51] = test system: Echinochloa crus-galli; assay: Phytotoxicity against Echinochloa crusgalli assessed as visual injury at 4.0 kg/ha growth rate treated pre-emergence by greenhouse test; type: functional
# [52] = test system: Echinochloa crus-galli; assay: Phytotoxicity against Echinochloa crusgalli assessed as visual injury at 2.0 kg/ha growth rate treated pre-emergence by greenhouse test; type: functional
# [53] = test system: Echinochloa crus-galli; assay: Phytotoxicity against Echinochloa crusgalli assessed as visual injury at 1.0 kg/ha growth rate treated pre-emergence by greenhouse test; type: functional
# [54] = test system: Echinochloa crus-galli; assay: Phytotoxicity against Echinochloa crusgalli assessed as visual injury at 0.5 kg/ha growth rate treated pre-emergence by greenhouse test; type: functional
# [55] = test system: Ipomoea hederacea; assay: Phytotoxicity against Ipomoea hederacea assessed as visual injury at 4.0 kg/ha growth rate treated post-emergence by greenhouse test; type: functional
# [56] = test system: Ipomoea hederacea; assay: Phytotoxicity against Ipomoea hederacea assessed as visual injury at 2.0 kg/ha growth rate treated post-emergence by greenhouse test; type: functional
# [57] = test system: Ipomoea hederacea; assay: Phytotoxicity against Ipomoea hederacea assessed as visual injury at 1.0 kg/ha growth rate treated post-emergence by greenhouse test; type: functional
# [58] = test system: Ipomoea hederacea; assay: Phytotoxicity against Ipomoea hederacea assessed as visual injury at 0.5 kg/ha growth rate treated post-emergence by greenhouse test; type: functional
# [59] = test system: Ipomoea hederacea; assay: Phytotoxicity against Ipomoea hederacea assessed as visual injury at 4.0 kg/ha growth rate treated pre-emergence by greenhouse test; type: functional
# [60] = test system: Ipomoea hederacea; assay: Phytotoxicity against Ipomoea hederacea assessed as visual injury at 2.0 kg/ha growth rate treated pre-emergence by greenhouse test; type: functional
# [61] = test system: Ipomoea hederacea; assay: Phytotoxicity against Ipomoea hederacea assessed as visual injury at 1.0 kg/ha growth rate treated pre-emergence by greenhouse test; type: functional
# [62] = test system: Ipomoea hederacea; assay: Phytotoxicity against Ipomoea hederacea assessed as visual injury at 0.5 kg/ha growth rate treated pre-emergence by greenhouse test; type: functional
# [63] = test system: Avena fatua; assay: Phytotoxicity against Avena fatua assessed as visual injury at 4.0 kg/ha growth rate treated post-emergence by greenhouse test; type: functional
# [64] = test system: Avena fatua; assay: Phytotoxicity against Avena fatua assessed as visual injury at 2.0 kg/ha growth rate treated post-emergence by greenhouse test; type: functional
# [65] = test system: Avena fatua; assay: Phytotoxicity against Avena fatua assessed as visual injury at 1.0 kg/ha growth rate treated post-emergence by greenhouse test; type: functional
# [66] = test system: Avena fatua; assay: Phytotoxicity against Avena fatua assessed as visual injury at 0.5 kg/ha growth rate treated post-emergence by greenhouse test; type: functional
# [67] = test system: Avena fatua; assay: Phytotoxicity against Avena fatua assessed as visual injury at 4.0 kg/ha growth rate treated pre-emergence by greenhouse test; type: functional
# [68] = test system: Avena fatua; assay: Phytotoxicity against Avena fatua assessed as visual injury at 2.0 kg/ha growth rate treated pre-emergence by greenhouse test; type: functional
# [69] = test system: Avena fatua; assay: Phytotoxicity against Avena fatua assessed as visual injury at 1.0 kg/ha growth rate treated pre-emergence by greenhouse test; type: functional
# [70] = test system: Avena fatua; assay: Phytotoxicity against Avena fatua assessed as visual injury at 0.5 kg/ha growth rate treated pre-emergence by greenhouse test; type: functional
# [71] = test system: Abutilon theophrasti; assay: Phytotoxicity against Abutilon theophrasti assessed as visual injury at 4.0 kg/ha growth rate treated post-emergence by greenhouse test; type: functional
# [72] = test system: Abutilon theophrasti; assay: Phytotoxicity against Abutilon theophrasti assessed as visual injury at 2.0 kg/ha growth rate treated post-emergence by greenhouse test; type: functional
# [73] = Arabidopsis thaliana, read-out: I50
smiles,measurement,setting,value
O=c1[nH]ncn1[C@@H]1O[C@H](COP(=O)(O)O)[C@@H](O)[C@H]1O [PHOSPHORIBOFURANOSYL TRIAZOLONE],IC50,[1],180 nM
same,Activity,[2]; TDE = time-dependent effect,tde
same,IC50,[3],980 nM
O=C1NC(=O)[C@@]2(N1)O[C@H](COP(=O)(O)O)[C@@H](O)[C@H]2O,Activity,[2]; TDE = time-dependent effect,tde
same,Activity,[4]; TDE = time-dependent effect,tde
O=c1[nH]ncn1[C@@H]1O[C@H](CO)[C@@H](O)[C@H]1O,Activity,[5],70%
same,Activity,[6],85%
same,Activity,[7],65%
same,Activity,[8],30%
same,Activity,[9],30%
same,Activity,[10],15%
same,Activity,[11],70%
same,Activity,[12],50%
same,Activity,[13],50%
same,Activity,[14],0%
same,Activity,[15],0%
same,Activity,[16],0%
same,Activity,[17],0%
same,Activity,[18],0%
same,Activity,[19],85%
same,Activity,[20],60%
same,Activity,[21],70%
same,Activity,[22],50%
same,Activity,[23],0%
same,Activity,[24],0%
same,Activity,[25],0%
same,Activity,[26],0%
same,I50,[27],2.5 ppm
same,IC50,[27]; [73],11500 nM
same,I50,[28],1.8 ppm
same,IC50,[28]; [73],8300 nM
same,Activity,[29],inactive
same,Activity,[2],inactive
same,Activity,[4],inactive
same,Activity,[30],80%
same,Activity,[31],70%
same,Activity,[32],70%
same,Activity,[33],40%
same,Activity,[34],40%
same,Activity,[35],35%
same,Activity,[36],30%
same,Activity,[37],0%
same,I50,[38],0.04 ppm
same,IC50,[38]; [73],200 nM
same,Activity,[39],95%
same,Activity,[40],95%
same,Activity,[41],100%
same,Activity,[42],90%
same,Activity,[43],60%
same,Activity,[44],20%
same,Activity,[45],10%
same,Activity,[46],0%
same,Activity,[47],90%
same,Activity,[48],85%
same,Activity,[49],85%
same,Activity,[50],70%
same,Activity,[51],0%
same,Activity,[52],0%
same,Activity,[53],0%
same,Activity,[54],0%
same,Activity,[55],90%
same,Activity,[56],80%
same,Activity,[57],80%
same,Activity,[58],75%
same,Activity,[59],40%
same,Activity,[60],40%
same,Activity,[61],25%
same,Activity,[62],15%
same,Activity,[63],60%
same,Activity,[64],70%
same,Activity,[65],60%
same,Activity,[66],50%
same,Activity,[67],0%
same,Activity,[68],0%
same,Activity,[69],0%
same,Activity,[70],0%
same,Activity,[71],80%
same,Activity,[72],80%
